Assay results from ChEMBL document CHEMBL3108763, “[1,2,4]triazolo[4,3-a]phthalazines: inhibitors of diverse bromodomains” (J Med Chem, 2014).

Experiments:
[1] = target: T1, Transcription intermediary factor 1-alpha (Homo sapiens) (UniProt O15164); settings: 50 uM
T1 sequence (whole entry): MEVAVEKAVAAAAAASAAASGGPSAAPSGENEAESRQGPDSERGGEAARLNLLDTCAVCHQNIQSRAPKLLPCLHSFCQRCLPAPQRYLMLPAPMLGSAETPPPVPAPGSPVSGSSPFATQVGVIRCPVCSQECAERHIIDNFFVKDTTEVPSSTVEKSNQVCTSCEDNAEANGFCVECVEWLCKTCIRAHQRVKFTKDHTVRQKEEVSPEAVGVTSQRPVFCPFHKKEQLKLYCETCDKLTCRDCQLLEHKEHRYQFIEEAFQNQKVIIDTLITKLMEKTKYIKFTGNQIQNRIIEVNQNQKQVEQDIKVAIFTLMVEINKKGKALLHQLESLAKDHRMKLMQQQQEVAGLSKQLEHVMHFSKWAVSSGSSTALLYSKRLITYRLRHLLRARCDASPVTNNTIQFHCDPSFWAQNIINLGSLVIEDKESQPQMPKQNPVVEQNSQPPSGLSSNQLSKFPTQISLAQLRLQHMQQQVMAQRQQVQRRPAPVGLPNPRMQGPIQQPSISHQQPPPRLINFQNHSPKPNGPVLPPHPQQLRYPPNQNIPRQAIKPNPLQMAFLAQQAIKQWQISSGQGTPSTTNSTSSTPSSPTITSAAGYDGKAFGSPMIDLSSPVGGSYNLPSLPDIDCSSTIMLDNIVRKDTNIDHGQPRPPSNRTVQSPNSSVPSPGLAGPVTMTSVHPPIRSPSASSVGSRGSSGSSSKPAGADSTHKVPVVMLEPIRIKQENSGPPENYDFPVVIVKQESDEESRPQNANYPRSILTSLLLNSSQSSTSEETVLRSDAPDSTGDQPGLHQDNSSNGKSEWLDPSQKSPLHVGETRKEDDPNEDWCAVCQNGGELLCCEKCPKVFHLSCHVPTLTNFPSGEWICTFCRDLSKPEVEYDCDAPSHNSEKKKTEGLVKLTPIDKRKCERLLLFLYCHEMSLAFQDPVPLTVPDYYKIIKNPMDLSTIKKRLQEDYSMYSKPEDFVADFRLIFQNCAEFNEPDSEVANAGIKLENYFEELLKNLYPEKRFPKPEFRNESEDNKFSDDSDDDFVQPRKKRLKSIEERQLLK

[2] = target: Protein polybromo-1 (Homo sapiens) (UniProt Q86U86); settings: 100 uM
Chain of Protein polybromo-1 (Homo sapiens) (Q86U86 whole entry, the tested form may be a part): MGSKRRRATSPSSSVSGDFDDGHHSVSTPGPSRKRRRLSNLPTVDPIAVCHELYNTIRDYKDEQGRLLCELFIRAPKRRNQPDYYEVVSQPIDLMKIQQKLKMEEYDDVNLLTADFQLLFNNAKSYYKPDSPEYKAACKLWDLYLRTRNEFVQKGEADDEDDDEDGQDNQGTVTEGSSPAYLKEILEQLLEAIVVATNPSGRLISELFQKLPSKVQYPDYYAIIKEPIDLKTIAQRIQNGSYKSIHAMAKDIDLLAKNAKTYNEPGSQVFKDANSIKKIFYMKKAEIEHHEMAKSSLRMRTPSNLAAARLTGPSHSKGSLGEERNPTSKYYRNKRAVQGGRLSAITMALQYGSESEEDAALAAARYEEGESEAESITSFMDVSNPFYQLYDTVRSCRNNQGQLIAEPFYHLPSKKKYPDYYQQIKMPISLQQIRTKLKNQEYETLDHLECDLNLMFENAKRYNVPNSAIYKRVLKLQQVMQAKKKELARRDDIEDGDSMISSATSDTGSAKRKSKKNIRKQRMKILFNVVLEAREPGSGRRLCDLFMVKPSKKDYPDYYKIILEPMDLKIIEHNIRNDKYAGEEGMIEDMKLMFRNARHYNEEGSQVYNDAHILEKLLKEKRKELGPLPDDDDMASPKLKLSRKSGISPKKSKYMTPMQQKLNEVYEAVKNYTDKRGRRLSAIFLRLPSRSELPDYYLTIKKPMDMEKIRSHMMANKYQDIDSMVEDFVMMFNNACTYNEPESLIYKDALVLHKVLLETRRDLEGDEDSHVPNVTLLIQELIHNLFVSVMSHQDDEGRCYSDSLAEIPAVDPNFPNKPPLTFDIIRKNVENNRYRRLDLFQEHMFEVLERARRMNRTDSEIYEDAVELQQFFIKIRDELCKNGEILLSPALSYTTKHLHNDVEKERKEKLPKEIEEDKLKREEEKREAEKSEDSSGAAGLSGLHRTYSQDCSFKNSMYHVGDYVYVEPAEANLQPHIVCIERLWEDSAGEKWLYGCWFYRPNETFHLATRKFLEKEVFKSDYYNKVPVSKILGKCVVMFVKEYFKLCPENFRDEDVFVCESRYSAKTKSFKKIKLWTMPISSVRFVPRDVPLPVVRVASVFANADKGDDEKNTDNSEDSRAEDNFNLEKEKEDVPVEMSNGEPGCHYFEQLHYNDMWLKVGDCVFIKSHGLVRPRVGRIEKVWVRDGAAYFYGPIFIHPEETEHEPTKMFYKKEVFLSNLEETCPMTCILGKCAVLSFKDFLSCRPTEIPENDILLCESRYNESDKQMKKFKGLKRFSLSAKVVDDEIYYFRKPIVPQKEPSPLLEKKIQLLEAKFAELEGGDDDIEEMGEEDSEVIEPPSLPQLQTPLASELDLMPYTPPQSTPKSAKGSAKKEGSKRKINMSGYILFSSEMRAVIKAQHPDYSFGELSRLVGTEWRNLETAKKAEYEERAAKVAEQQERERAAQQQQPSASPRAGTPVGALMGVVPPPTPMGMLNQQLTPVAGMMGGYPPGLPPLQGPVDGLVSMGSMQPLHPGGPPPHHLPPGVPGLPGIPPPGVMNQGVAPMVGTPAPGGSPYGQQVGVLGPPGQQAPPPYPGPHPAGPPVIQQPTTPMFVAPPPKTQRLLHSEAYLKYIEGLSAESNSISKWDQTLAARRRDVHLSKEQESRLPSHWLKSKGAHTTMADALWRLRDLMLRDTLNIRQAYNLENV

[3] = target: Bromodomain adjacent to zinc finger domain protein 2B (Homo sapiens) (UniProt Q9UIF8); settings: 100 uM
Chain of Bromodomain adjacent to zinc finger domain protein 2B (Homo sapiens) (Q9UIF8 whole entry, the tested form may be a part): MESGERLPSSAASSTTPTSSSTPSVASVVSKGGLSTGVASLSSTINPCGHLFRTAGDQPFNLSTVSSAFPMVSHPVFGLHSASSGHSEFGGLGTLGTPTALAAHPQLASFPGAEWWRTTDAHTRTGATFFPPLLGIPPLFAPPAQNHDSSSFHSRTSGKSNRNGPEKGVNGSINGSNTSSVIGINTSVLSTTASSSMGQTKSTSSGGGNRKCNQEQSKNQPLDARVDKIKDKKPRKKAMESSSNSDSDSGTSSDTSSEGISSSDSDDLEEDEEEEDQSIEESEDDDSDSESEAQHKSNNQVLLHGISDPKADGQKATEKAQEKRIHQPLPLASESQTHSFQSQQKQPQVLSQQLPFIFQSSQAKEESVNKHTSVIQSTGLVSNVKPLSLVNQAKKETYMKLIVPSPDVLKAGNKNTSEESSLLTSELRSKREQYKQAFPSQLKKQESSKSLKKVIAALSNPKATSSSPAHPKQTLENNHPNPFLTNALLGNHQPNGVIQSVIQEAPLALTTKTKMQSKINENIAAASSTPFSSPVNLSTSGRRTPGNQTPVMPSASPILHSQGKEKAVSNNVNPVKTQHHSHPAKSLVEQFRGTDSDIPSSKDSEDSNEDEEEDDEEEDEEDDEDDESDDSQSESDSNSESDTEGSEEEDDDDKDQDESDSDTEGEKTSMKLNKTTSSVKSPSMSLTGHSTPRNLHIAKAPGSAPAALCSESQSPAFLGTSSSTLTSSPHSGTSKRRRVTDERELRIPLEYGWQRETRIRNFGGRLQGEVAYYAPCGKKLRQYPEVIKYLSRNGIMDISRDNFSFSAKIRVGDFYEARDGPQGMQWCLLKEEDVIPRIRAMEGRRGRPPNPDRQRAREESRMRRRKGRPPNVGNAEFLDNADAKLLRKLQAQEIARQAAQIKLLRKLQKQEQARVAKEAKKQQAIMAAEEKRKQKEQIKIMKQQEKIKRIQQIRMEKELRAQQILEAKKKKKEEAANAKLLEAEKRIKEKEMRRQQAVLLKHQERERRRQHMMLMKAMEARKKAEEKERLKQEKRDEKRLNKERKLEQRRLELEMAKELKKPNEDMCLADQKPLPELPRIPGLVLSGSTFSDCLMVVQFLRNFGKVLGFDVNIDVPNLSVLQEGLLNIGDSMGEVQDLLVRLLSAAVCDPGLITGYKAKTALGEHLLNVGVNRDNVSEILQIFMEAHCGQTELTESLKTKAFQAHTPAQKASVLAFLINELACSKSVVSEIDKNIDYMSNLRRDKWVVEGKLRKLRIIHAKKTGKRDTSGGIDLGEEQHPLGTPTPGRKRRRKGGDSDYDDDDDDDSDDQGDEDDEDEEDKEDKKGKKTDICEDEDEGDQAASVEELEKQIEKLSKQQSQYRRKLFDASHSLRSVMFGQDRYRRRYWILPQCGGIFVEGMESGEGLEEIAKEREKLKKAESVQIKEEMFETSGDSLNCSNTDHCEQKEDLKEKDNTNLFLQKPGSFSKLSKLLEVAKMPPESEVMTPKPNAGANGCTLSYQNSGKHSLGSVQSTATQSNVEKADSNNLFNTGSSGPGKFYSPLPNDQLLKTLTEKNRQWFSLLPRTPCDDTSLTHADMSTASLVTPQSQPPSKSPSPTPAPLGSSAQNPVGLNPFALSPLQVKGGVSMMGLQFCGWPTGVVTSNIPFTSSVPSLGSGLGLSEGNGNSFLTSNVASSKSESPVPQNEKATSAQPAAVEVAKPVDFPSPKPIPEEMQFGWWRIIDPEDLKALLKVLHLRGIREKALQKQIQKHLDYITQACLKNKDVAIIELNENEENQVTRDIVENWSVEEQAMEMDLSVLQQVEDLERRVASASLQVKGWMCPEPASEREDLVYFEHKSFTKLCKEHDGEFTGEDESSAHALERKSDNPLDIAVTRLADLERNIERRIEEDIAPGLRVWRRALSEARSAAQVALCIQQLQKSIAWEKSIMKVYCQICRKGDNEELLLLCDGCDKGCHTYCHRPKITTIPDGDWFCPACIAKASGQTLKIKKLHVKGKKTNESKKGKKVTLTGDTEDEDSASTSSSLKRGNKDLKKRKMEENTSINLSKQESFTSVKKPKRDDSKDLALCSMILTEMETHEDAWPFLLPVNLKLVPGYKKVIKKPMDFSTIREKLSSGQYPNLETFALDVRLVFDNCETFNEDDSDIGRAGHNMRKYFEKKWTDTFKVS

[4] = target: T1, Transcription intermediary factor 1-alpha (Homo sapiens); settings: 100 uM

inhibition [1] [%] | inhibition [2] [%] | inhibition [3] [%] | inhibition [4] [%] | Structure (SMILES)
< 30 | – | – | – | COc1ccc(S(=O)(=O)Nc2cc(-c3nn4c(C)nnc4c4ccccc34)ccc2N2CCN(C)CC2)cc1
< 30 | – | – | – | Cc1nnc2c3ccccc3c(-c3ccc(N4CCOCC4)c(NS(=O)(=O)c4ccc(Cl)cc4)c3)nn12
– | < 25 | < 25 | < 25 | Cc1ccc(-c2nn3c(C)nnc3c3ccccc23)cc1S(=O)(=O)N(C)C
< 30 | – | – | – | Cc1nnc2c3ccccc3c(-c3ccc(N4CCOCC4)c(NS(=O)(=O)c4ccccc4Cl)c3)nn12
– | < 25 | < 25 | < 25 | Cc1ccc(-c2nn3c(C)nnc3c3ccccc23)cc1NS(C)(=O)=O
– | < 25 | < 25 | < 25 | CNS(=O)(=O)c1cc(-c2nn3c(C)nnc3c3ccccc23)ccc1C
< 30 | – | – | – | Cc1nnc2c3ccccc3c(-c3ccc(N4CCOCC4)c(NS(C)(=O)=O)c3)nn12
– | < 25 | < 25 | < 25 | CCC(=O)Nc1cc(-c2nn3c(C)nnc3c3ccccc23)ccc1C
